Source: US20100311714A1, “1H-IMIDAZO[4,5-c]QUINOLINONE COMPOUNDS” (priority 2009, published 2010)
Where two headings read alike, the source gives them in different places.

What was measured:
PI3K alfa = target: T1, PI3K alfa (Homo sapiens, UniProt P42336); assay: PI3K alpha kinase assay (Kinase-Glo luminescence); assay type: biochemical
T1 construct: His tag (C); made in house; host or cells: baculovirus BV1075; Tn5 (Trichoplusia ni) or TiniPro insect cells
Summary of the method: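 IC50 values come from a four-parameter logistic fit of percent inhibition at eight concentrations, typically 10 to 0.003 μM. Recombinant PI3Kα at 10 nM turned over 1 μM ATP with 10 μg/mL PI for 60 min at room temperature, and residual ATP was measured by Kinase-Glo.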

PI3K beta = target: T2, PI3K beta (Homo sapiens, UniProt P42338); assay: PI3K beta kinase assay (Kinase-Glo luminescence); assay type: biochemical
T2 construct: for the full-length p110-b subunit are generated and fused by overlapping PCR; His tag (C); made in house; host or cells: baculovirus BV949; Tn5 (Trichoplusia ni) or TiniPro insect cells
Summary of the method: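 Kinase-Glo luminescence read out ATP left after a 60-min room-temperature reaction, started with ATP (1 μM final) on 25 nM His-tagged p85 iSH2–p110β (BV949) plus 10 μg/mL PI substrate in pH 7.5 Tris buffer. Percent inhibition at eight concentrations was fitted to a four-parameter logistic model for IC50.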

T1 sequence (P42336 with tags, fused parts or gaps limits assumed): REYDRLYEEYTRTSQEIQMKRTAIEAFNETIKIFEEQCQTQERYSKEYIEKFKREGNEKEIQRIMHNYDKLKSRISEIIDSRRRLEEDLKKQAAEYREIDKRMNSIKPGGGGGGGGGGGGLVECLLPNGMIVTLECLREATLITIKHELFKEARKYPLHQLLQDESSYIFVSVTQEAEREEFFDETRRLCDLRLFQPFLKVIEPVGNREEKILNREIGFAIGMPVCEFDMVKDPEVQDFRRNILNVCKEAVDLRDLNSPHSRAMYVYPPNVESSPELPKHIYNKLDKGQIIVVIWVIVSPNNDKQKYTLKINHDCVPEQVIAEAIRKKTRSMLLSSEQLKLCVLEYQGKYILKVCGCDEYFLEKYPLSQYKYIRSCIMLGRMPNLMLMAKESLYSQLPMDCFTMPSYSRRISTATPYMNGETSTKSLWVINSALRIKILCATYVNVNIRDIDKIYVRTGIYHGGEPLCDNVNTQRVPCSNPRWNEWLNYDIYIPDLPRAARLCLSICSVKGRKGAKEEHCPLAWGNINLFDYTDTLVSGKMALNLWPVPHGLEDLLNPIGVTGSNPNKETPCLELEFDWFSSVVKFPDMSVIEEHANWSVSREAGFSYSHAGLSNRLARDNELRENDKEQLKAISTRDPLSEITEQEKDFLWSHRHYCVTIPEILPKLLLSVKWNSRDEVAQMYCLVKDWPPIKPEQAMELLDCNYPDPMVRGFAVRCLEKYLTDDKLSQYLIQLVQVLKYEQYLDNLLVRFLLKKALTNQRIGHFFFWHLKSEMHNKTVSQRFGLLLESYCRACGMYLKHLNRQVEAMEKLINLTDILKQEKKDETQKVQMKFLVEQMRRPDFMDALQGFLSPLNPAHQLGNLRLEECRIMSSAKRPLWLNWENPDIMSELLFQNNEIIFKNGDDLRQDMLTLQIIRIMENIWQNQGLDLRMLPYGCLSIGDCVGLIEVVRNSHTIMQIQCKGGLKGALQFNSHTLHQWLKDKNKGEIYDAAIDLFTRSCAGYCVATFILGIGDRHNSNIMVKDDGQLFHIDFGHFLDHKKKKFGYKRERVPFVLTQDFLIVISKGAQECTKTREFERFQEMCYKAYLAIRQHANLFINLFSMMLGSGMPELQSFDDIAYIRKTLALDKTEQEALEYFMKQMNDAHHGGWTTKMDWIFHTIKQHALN
T2 sequence (P42338 with tags, fused parts or gaps limits assumed): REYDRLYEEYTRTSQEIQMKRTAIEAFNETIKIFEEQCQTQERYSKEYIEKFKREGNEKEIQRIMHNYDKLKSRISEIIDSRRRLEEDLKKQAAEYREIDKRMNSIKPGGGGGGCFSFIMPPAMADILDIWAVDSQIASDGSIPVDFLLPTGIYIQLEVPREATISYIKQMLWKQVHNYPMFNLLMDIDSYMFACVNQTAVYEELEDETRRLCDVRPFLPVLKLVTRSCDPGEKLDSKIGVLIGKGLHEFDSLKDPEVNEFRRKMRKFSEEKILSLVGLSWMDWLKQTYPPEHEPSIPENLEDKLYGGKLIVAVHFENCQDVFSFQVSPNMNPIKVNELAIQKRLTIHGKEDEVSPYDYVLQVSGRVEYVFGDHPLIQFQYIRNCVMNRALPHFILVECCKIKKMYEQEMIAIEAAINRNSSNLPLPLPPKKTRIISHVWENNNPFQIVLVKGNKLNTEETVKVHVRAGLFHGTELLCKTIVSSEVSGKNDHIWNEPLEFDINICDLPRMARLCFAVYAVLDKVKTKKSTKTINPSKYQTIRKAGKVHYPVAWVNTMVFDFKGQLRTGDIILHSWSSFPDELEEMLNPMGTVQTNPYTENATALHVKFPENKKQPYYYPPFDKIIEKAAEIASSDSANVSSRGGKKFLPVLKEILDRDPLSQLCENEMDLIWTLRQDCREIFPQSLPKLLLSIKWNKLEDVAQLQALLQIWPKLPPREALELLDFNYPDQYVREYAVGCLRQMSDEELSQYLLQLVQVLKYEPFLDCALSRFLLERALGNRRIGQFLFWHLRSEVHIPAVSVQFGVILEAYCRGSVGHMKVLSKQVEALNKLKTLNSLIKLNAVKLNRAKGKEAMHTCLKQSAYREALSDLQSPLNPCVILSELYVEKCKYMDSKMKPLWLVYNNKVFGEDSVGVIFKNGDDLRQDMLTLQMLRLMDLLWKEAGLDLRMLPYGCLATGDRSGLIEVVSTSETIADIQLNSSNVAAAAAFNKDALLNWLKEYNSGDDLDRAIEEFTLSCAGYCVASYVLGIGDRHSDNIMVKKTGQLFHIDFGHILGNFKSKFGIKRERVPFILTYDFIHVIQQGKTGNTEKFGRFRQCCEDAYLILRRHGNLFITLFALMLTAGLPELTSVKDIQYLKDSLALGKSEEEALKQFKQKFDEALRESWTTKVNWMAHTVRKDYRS

| IC50 (PI3K alfa; read-out: EPK_PI3Kalfa/IC50) | IC50 (PI3K beta; read-out: EPK_PI3Kbeta/IC50) | IC50 (PI3K alfa; read-out: PI3Kalfa/IC50) | IC50 (PI3K beta; read-out: PI3Kbeta/IC50) | SMILES |
| --- | --- | --- | --- | --- |
| 11 nM | 27 nM |  |  | CCNc1cc(-c2ccc3ncc4c(c3c2)n(-c2ccc(N3CC(F)(F)C3)nc2C)c(=O)n4C)cnc1CO [Example 24.3, 1-[6-(3,3-Difluoro-azetidin-1-yl)-2-methyl-pyridin-3-yl]-8-(5-ethylamino-6-hydroxymethyl-pyridin-3-yl)-3-methyl-1,3-dihydro-imidazo[4,5-c]quinolin-2-one] |
| 39 nM | 592 nM |  |  | CNc1ccc(-c2ccc3ncc4c(c3c2)n(-c2ccc(NC(=O)COC)nc2C)c(=O)n4C)cn1 [Example 20.4, 2-Methoxy-N-{6-methyl-5-[3-methyl-8-(6-methylamino-pyridin-3-yl)-2-oxo-2,3-dihydro-imidazo[4,5-c]quinolin-1-yl]-pyridin-2-yl}-acetamide] |
|  |  | 40 nM | 505 nM | CCOc1ccc(-c2ccc3ncc4c(c3c2)n(-c2cccnc2OC)c(=O)n4C)cn1 [Example 1.5, 8-(6-Ethoxy-pyridin-3-yl)-1-(2-methoxy-pyridin-3-yl)-3-methyl-1,3-dihydro-imidazo[4,5-c]quinolin-2-one] |
| 44 nM | 265 nM |  |  | CNc1ncc(-c2ccc3ncc4c(c3c2)n(-c2ccc(F)nc2C)c(=O)n4C)cc1F [Example 7.12, 8-(5-Fluoro-6-methylamino-pyridin-3-yl)-1-(6-fluoro-2-methyl-pyridin-3-yl)-3-methyl-1,3-dihydro-imidazo[4,5-c]quinolin-2-one] |
| 9 nM | < 3 nM |  |  | COc1cc(-c2ccc3ncc4c(c3c2)n(-c2ccc(N(C)C)nc2C)c(=O)n4C)cnc1CO [Example 19.4, 1-(6-Dimethylamino-2-methyl-pyridin-3-yl)-8-(6-hydroxymethyl-5-methoxy-pyridin-3-yl)-3-methyl-1,3-dihydro-imidazo[4,5-c]quinolin-2-one] |
| 78 nM | 3950 nM |  |  | CCOc1ccc(-c2ccc3ncc4c(c3c2)n(-c2cncc(C)c2)c(=O)n4C)cn1 [Example 17.1, 8-(6-Ethoxy-pyridin-3-yl)-3-methyl-1-(5-methyl-pyridin-3-yl)-1,3-dihydro-imidazo[4,5-c]quinolin-2-one] |
|  |  | 29 nM | 295 nM | COc1ccc(-c2ccc3ncc4c(c3c2)n(-c2cccnc2)c(=O)n4C)cc1OC [Example 5.2, 8-(3,4-Dimethoxy-phenyl)-3-methyl-1-pyridin-3-yl-1,3-dihydro-imidazo[4,5-c]quinolin-2-one] |
| 39 nM | 541 nM |  |  | CNc1ncc(-c2ccc3ncc4c(c3c2)n(-c2ccc(N(C)CCOC)nc2C)c(=O)n4C)cn1 [Example 15.2, 1-{6-[(2-Methoxy-ethyl)-methyl-amino]-2-methyl-pyridin-3-yl}-3-methyl-8-(2-methylamino-pyrimidin-5-yl)-1,3-dihydro-imidazo[4,5-c]quinolin-2-one] |
| 171 nM | 746 nM |  |  | COCCOc1ccc(-n2c(=O)n(C)c3cnc4ccc(-c5cncc(N6CCC6)c5)cc4c32)c(C)n1 [Example 22.2, 8-(5-Azetidin-1-yl-pyridin-3-yl)-1-[6-(2-methoxy-ethoxy)-2-methyl-pyridin-3-yl]-3-methyl-1,3-dihydro-imidazo[4,5-c]quinolin-2-one] |
| 37 nM | 53 nM |  |  | Cc1ccc(-n2c(=O)n(C)c3cnc4ccc(-c5cncc(NC(C)C)c5)cc4c32)c(C)n1 [Example 14.8, 1-(2,6-Dimethyl-pyridin-3-yl)-8-(5-isopropylamino-pyridin-3-yl)-3-methyl-1,3-dihydro-imidazo[4,5-c]quinolin-2-one] |
| 5 nM | 9 nM |  |  | Cc1ccc(-n2c(=O)n(C)c3cnc4ccc(-c5cnc(N)c(C(F)(F)F)c5)cc4c32)c(C)n1 [Example 14.5, 8-(6-Amino-5-trifluoromethyl-pyridin-3-yl)-1-(2,6-dimethyl-pyridin-3-yl)-3-methyl-1,3-dihydro-imidazo[4,5-c]quinolin-2-one] |
| 13 nM | 62 nM |  |  | CCNc1cc(-c2ccc3ncc4c(c3c2)n(-c2ccc(OCCOC)nc2C)c(=O)n4C)cnc1C [Example 13.4, 8-(5-Ethylamino-6-methyl-pyridin-3-yl)-1-[6-(2-methoxy-ethoxy)-2-methyl-pyridin-3-yl]-3-methyl-1,3-dihydro-imidazo[4,5-c]quinolin-2-one] |
| 47 nM | 1330 nM |  |  | CNc1ccc(-c2ccc3ncc4c(c3c2)n(-c2cnc(F)cc2C)c(=O)n4C)cn1 [Example 16.4, 1-(6-Fluoro-4-methyl-pyridin-3-yl)-3-methyl-8-(6-methylamino-pyridin-3-yl)-1,3-dihydro-imidazo[4,5-c]quinolin-2-one] |
| 43 nM | 358 nM |  |  | CCOc1ccc(-c2ccc3ncc4c(c3c2)n(-c2ccc(C)nc2C)c(=O)n4C)cn1 [Example 14.2, 1-(2,6-Dimethyl-pyridin-3-yl)-8-(6-ethoxy-pyridin-3-yl)-3-methyl-1,3-dihydro-imidazo[4,5-c]quinolin-2-one] |
| 36 nM | 20 nM |  |  | COCCOc1ccc(-n2c(=O)n(C)c3cnc4ccc(-c5cnc(N)c(C(F)(F)F)c5)cc4c32)c(C)n1 [Example 13.2, 8-(6-Amino-5-trifluoromethyl-pyridin-3-yl)-1-[6-(2-methoxy-ethoxy)-2-methyl-pyridin-3-yl]-3-methyl-1,3-dihydro-imidazo[4,5-c]quinolin-2-one] |
|  |  | 34 nM | 315 nM | Cc1ncccc1-n1c(=O)n(C)c2cnc3ccc(-c4cnc5c(ccn5C)c4)cc3c21 [Example 2.14, 3-Methyl-1-(2-methyl-pyridin-3-yl)-8-(1-methyl-1H-pyrrolo[2,3-b]pyridin-5-yl)-1,3-dihydro-imidazo[4,5-c]quinolin-2-one] |
| 21 nM | 13 nM |  |  | Cc1nc(N2CCC(O)C2)ccc1-n1c(=O)n(C)c2cnc3ccc(-c4cncc(OC(C)C)c4)cc3c21 (stereo not drawn) [Example 27.1, 1-[6-(3-Hydroxy-pyrrolidin-1-yl)-2-methyl-pyridin-3-yl]-8-(5-isopropoxy-pyridin-3-yl)-3-methyl-1,3-dihydro-imidazo[4,5-c]quinolin-2-one] |
|  |  | 48 nM | 374 nM | CNc1ccc(-c2ccc3ncc4c(c3c2)n(-c2cccnc2OC)c(=O)n4C)cn1 [Example 1.4, 1-(2-Methoxy-pyridin-3-yl)-3-methyl-8-(6-methylamino-pyridin-3-yl)-1,3-dihydro-imidazo[4,5-c]quinolin-2-one] |
| 43 nM | 658 nM |  |  | CNc1ncc(-c2ccc3ncc4c(c3c2)n(-c2ccc(OCCOC)nc2C)c(=O)n4C)cn1 [Example 13.5, 1-[6-(2-Methoxy-ethoxy)-2-methyl-pyridin-3-yl]-3-methyl-8-(2-methylamino-pyrimidin-5-yl)-1,3-dihydro-imidazo[4,5-c]quinolin-2-one] |
| 64 nM | 188 nM |  |  | Cc1nc(F)ccc1-n1c(=O)n(C)c2cnc3ccc(-c4cnc(N)c(CO)c4)cc3c21 [Example 7.17, 8-(6-Amino-5-hydroxymethyl-pyridin-3-yl)-1-(6-fluoro-2-methyl-pyridin-3-yl)-3-methyl-1,3-dihydro-imidazo[4,5-c]quinolin-2-one] |
| 31 nM | 502 nM |  |  | CNc1ccc(-c2ccc3ncc4c(c3c2)n(-c2ccc(OCCOC)nc2C)c(=O)n4C)cn1 [Example 13.3, 1-[6-(2-Methoxy-ethoxy)-2-methyl-pyridin-3-yl]-3-methyl-8-(6-methylamino-pyridin-3-yl)-1,3-dihydro-imidazo[4,5-c]quinolin-2-one] |
| 55 nM | 1970 nM |  |  | CCOc1ccc(-c2ccc3ncc4c(c3c2)n(-c2ccc(N(C)C)nc2C)c(=O)n4C)cn1 [Example 19.3, 1-(6-Dimethylamino-2-methyl-pyridin-3-yl)-8-(6-ethoxy-pyridin-3-yl)-3-methyl-1,3-dihydro-imidazo[4,5-c]quinolin-2-one] |
| 65 nM | 300 nM |  |  | Cc1nc(N(C)C)ccc1-n1c(=O)n(C)c2cnc3ccc(-c4cncc(N)c4)cc3c21 [Example 19.5, 8-(5-Amino-pyridin-3-yl)-1-(6-dimethylamino-2-methyl-pyridin-3-yl)-3-methyl-1,3-dihydro-imidazo[4,5-c]quinolin-2-one] |
|  |  | 23 nM | 202 nM | COc1ccc(-c2ccc3ncc4c(c3c2)n(-c2cccnc2OC)c(=O)n4C)cn1 [Example 1.1, 1-(2-Methoxy-pyridin-3-yl)-8-(6-methoxy-pyridin-3-yl)-3-methyl-1,3-dihydro-imidazo[4,5-c]quinolin-2-one] |
| 40 nM | 542 nM |  |  | COCC(=O)Nc1ccc(-n2c(=O)n(C)c3cnc4ccc(-c5cncc(OC(C)C)c5)cc4c32)c(C)n1 [Example 20.5, N-{5-[8-(5-Isopropoxy-pyridin-3-yl)-3-methyl-2-oxo-2,3-dihydro-imidazo[4,5-c]quinolin-1-yl]-6-methyl-pyridin-2-yl}-2-methoxy-acetamide] |
| 123 nM | 2760 nM |  |  | CNc1ncc(-c2ccc3ncc4c(c3c2)n(-c2ccc(NC(=O)COC)nc2C)c(=O)n4C)cn1 [Example 20.3, 2-Methoxy-N-{6-methyl-5-[3-methyl-8-(2-methylamino-pyrimidin-5-yl)-2-oxo-2,3-dihydro-imidazo[4,5-c]quinolin-1-yl]-pyridin-2-yl}-acetamide] |
| 20 nM | 69 nM |  |  | CCNc1cc(-c2ccc3ncc4c(c3c2)n(-c2ccc(F)nc2C)c(=O)n4C)cnc1CO [Example 7.9, 8-(5-Ethylamino-6-hydroxymethyl-pyridin-3-yl)-1-(6-fluoro-2-methyl-pyridin-3-yl)-3-methyl-1,3-dihydro-imidazo[4,5-c]quinolin-2-one] |
